Measurements reported in ChEMBL document CHEMBL5291721, “A preclinical secondary pharmacology resource illuminates target-adverse drug reaction associations of marketed drugs” (Nat Commun, 2023).

What was measured:
[1] = molecular target: Voltage-gated inwardly rectifying potassium channel KCNH2 (Homo sapiens, UniProt Q12809); format: functional
[2] = molecular target: Sodium-dependent dopamine transporter (Homo sapiens, UniProt Q01959)
[3] = molecular target: Sodium-dependent noradrenaline transporter (Homo sapiens, UniProt P23975)
[4] = molecular target: T1, Alpha-1A adrenergic receptor (Homo sapiens, UniProt P35348); format: functional, cell-based
T1 sequence (P35348 whole entry): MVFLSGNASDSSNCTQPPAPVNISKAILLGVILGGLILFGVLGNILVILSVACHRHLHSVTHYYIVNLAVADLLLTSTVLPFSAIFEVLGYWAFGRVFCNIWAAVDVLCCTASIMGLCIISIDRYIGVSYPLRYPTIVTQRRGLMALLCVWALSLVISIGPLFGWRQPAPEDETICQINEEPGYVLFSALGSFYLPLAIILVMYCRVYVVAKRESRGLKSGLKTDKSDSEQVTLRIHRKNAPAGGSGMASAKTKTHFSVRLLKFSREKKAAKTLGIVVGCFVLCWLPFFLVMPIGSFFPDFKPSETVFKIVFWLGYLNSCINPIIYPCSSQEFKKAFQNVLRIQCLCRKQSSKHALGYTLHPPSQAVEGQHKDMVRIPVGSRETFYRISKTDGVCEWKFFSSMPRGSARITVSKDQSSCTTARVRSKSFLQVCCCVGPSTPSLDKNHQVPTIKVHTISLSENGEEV

[5] = molecular target: cGMP-inhibited 3',5'-cyclic phosphodiesterase 3A (Homo sapiens, UniProt Q14432); format: functional
[6] = molecular target: 5-hydroxytryptamine receptor 2B (Homo sapiens, UniProt P41595); format: functional, cell-based
Mu-type opioid receptor = Mu-type opioid receptor (Homo sapiens, UniProt P35372)
Histamine H3 receptor = Histamine H3 receptor (Homo sapiens, UniProt Q9Y5N1)
Prothrombin = Prothrombin (Homo sapiens, UniProt P00734); format: functional
D(1A) dopamine receptor = D(1A) dopamine receptor (Homo sapiens, UniProt P21728)
Progesterone receptor = molecular target: T2, Progesterone receptor (Homo sapiens, UniProt P06401)
T2 sequence (P06401 whole entry): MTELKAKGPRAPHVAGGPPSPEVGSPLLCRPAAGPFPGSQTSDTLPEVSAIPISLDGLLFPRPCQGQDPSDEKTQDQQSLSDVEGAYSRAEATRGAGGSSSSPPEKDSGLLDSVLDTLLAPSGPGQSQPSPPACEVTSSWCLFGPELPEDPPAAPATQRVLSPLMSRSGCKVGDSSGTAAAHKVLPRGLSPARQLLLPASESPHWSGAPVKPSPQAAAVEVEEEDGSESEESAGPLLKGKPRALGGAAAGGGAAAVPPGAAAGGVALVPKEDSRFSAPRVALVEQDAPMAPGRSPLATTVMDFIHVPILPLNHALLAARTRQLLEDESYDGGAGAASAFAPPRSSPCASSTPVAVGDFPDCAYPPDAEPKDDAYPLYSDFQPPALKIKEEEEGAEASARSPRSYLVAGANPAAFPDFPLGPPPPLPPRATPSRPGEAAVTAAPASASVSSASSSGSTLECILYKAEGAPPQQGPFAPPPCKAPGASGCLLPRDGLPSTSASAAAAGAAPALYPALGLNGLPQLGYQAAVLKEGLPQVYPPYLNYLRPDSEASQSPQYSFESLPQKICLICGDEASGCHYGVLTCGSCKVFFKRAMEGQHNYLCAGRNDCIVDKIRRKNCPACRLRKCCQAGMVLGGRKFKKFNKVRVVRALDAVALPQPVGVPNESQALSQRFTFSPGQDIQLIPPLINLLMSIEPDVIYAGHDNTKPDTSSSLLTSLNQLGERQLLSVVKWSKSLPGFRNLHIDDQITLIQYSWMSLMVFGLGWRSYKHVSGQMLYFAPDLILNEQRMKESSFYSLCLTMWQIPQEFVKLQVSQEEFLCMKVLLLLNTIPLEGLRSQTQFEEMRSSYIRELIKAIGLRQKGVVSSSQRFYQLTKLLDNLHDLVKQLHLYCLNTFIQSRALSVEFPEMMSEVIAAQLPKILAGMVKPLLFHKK

[7] = molecular target: T3, Alpha-2A adrenergic receptor (Homo sapiens, UniProt P08913)
T3 sequence (P08913 whole entry): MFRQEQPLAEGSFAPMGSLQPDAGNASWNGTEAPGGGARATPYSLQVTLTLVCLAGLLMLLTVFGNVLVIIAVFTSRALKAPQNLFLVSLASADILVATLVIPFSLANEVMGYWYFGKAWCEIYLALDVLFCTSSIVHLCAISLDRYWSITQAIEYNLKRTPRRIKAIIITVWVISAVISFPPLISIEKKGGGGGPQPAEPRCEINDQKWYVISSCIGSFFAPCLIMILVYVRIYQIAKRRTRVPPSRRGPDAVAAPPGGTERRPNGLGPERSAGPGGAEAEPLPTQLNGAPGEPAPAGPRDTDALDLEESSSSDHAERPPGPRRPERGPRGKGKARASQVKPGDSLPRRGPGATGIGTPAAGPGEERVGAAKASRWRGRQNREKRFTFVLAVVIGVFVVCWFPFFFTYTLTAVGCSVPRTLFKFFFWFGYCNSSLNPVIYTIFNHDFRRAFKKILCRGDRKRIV

D(3) dopamine receptor = D(3) dopamine receptor (Homo sapiens, UniProt P35462)
Thromboxane A2 receptor = molecular target: T4, Thromboxane A2 receptor (Homo sapiens, UniProt P21731); format: functional, cell-based
T4 sequence (P21731 whole entry): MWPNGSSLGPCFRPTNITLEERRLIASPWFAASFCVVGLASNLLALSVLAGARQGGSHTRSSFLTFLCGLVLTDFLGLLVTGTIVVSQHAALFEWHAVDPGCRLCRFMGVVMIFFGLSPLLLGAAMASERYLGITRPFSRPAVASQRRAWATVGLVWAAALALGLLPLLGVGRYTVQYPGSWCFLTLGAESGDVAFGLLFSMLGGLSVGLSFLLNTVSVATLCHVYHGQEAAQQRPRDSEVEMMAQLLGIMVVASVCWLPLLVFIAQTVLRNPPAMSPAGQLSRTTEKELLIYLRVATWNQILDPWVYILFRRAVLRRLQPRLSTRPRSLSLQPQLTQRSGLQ

[8] = molecular target: Prostaglandin G/H synthase 1 (Homo sapiens, UniProt P23219); format: functional
Further: assay procedure not described here.

Chain of 5-hydroxytryptamine receptor 2B (P41595 whole entry): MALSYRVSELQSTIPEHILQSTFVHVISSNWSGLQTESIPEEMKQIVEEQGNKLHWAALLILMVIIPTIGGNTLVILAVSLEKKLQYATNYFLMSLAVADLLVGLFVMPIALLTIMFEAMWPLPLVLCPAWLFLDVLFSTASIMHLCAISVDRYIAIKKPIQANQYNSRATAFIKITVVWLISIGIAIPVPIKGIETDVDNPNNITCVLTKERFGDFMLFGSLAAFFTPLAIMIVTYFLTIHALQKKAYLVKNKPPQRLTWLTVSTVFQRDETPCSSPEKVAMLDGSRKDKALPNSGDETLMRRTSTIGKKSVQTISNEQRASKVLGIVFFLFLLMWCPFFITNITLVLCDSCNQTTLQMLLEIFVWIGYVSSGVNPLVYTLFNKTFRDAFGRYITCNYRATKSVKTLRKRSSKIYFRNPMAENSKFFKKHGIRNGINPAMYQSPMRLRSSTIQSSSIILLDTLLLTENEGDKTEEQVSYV
Chain of D(1A) dopamine receptor (P21728 whole entry): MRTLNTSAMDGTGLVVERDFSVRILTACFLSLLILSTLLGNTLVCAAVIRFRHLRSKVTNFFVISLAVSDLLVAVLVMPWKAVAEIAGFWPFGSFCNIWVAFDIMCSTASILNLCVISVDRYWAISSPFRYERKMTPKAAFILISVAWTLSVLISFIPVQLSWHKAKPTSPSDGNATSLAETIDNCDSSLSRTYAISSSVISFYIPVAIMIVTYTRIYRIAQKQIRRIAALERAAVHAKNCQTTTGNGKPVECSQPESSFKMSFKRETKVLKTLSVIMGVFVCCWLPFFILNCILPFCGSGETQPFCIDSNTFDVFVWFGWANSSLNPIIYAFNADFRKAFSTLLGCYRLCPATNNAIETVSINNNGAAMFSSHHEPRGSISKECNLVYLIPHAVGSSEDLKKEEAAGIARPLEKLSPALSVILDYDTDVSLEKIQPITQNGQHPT
Chain of Mu-type opioid receptor (P35372 whole entry): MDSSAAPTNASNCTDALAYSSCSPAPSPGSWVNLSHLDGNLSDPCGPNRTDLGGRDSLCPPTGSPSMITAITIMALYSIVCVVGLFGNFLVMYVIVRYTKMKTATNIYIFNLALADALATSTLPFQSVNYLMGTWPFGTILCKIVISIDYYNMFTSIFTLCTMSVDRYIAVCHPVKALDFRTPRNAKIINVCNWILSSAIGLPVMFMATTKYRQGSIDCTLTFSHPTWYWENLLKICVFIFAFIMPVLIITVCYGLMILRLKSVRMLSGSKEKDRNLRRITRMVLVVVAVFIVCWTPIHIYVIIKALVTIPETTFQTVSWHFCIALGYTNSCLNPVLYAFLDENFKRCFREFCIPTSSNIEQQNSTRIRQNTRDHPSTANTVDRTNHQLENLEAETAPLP
Chain of Prostaglandin G/H synthase 1 (P23219 whole entry): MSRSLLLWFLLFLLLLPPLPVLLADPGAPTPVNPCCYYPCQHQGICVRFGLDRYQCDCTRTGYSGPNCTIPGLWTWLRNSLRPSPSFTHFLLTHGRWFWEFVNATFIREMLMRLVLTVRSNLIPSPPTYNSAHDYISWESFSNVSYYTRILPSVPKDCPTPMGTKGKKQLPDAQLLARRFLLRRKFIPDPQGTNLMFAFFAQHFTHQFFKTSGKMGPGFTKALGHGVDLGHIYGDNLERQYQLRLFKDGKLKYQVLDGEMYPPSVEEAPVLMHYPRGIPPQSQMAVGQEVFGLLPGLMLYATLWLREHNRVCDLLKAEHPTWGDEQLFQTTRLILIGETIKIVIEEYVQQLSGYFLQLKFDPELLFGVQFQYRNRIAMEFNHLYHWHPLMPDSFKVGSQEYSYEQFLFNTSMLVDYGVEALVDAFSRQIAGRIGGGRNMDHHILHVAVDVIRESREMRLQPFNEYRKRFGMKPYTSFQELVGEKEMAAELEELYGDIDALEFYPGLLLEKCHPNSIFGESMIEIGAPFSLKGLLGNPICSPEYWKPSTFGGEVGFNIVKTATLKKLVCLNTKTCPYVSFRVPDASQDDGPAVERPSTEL
Chain of Sodium-dependent noradrenaline transporter (P23975 whole entry): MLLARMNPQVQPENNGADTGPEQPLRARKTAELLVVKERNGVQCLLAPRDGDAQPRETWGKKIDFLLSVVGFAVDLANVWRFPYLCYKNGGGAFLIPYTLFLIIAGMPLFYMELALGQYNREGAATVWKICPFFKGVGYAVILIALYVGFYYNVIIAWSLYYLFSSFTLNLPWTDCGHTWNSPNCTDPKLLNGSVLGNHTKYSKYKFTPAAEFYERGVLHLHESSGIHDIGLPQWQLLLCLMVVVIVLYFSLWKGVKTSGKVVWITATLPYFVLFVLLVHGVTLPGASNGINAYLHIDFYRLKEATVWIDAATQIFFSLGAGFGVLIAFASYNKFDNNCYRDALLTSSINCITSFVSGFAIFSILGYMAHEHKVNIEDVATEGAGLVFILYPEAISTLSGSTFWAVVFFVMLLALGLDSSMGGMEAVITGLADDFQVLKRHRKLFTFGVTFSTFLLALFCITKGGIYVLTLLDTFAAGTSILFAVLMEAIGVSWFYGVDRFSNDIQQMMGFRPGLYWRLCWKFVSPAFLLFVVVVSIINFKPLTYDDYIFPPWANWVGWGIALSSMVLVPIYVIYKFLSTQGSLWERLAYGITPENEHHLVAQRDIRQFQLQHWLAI
Chain of Sodium-dependent dopamine transporter (Q01959 whole entry): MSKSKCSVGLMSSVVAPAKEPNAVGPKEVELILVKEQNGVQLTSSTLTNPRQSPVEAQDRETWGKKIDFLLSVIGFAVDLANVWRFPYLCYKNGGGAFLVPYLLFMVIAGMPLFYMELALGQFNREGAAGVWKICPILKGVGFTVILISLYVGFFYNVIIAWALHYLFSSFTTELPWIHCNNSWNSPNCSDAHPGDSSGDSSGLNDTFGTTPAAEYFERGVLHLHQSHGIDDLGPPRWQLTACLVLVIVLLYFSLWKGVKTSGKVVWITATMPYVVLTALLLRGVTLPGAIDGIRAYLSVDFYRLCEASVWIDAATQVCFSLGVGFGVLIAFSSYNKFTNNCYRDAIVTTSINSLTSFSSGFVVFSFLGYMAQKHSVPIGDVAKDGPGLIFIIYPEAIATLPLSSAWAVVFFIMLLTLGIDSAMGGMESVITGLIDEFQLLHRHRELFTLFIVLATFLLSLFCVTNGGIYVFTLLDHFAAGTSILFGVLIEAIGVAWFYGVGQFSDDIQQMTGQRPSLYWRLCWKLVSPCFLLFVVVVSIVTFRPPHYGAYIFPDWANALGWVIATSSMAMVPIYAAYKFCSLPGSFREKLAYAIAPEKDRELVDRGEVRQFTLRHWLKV
Chain of Histamine H3 receptor (Q9Y5N1 whole entry): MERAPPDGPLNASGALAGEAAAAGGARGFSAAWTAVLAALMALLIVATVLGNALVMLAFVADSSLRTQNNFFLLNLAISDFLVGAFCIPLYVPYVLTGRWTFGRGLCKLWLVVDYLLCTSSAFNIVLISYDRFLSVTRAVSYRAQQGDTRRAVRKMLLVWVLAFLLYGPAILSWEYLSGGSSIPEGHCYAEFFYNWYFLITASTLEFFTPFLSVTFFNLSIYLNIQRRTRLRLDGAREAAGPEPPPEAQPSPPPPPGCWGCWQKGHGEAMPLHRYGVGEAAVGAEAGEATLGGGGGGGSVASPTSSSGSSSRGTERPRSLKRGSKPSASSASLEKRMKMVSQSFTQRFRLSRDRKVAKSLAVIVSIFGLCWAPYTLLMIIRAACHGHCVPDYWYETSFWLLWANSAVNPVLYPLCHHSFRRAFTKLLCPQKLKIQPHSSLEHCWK
Chain of D(3) dopamine receptor (P35462 whole entry): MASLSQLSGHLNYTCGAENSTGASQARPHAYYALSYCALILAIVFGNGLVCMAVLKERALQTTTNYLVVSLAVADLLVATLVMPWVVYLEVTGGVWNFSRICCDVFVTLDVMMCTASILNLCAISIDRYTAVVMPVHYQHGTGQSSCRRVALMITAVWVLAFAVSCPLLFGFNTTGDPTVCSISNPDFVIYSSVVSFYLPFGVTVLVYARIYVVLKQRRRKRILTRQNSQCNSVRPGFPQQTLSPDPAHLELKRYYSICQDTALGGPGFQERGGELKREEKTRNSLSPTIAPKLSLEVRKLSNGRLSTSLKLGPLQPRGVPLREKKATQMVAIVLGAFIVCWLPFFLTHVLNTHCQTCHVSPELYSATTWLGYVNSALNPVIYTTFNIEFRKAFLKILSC

CCOc1nc2cccc(C(=O)O)c2n1Cc1ccc(-c2ccccc2-c2nnn[nH]2)cc1
AC50 [1]: > 30 µM

CC(=O)Nc1ccc(CC(=O)O)cc1 [ACTARIT]
AC50 [1]: > 30 µM

CC(C(=O)O)c1ccc2oc(-c3ccc(Cl)cc3)nc2c1 (centres undefined) [BENOXAPROFEN]
AC50 [1]: > 30 µM

Nc1c(CC(=O)O)cccc1C(=O)c1ccc(Br)cc1 [BROMFENAC]
AC50 [2]: > 30 µM | AC50 [3]: > 30 µM | AC50 [4]: > 30 µM | AC50 [5]: > 30 µM | AC50 [6]: > 30 µM | AC50 (Mu-type opioid receptor): > 30 µM | AC50 (Histamine H3 receptor): > 30 µM | AC50 [1]: > 30 µM | AC50 (Prothrombin): > 30 µM | AC50 (D(1A) dopamine receptor): > 30 µM | AC50 (Progesterone receptor): > 30 µM | AC50 [7]: > 30 µM | AC50 (D(3) dopamine receptor): > 30 µM | AC50 (Thromboxane A2 receptor): > 30 µM

CC1(C)S[C@@H]2[C@H](NC(=O)C(C(=O)O)c3ccccc3)C(=O)N2[C@H]1C(=O)O (some centres undefined) [CARBENICILLIN]
AC50 [1]: > 30 µM

Cc1nnc(SCC2=C(C(=O)O)N3C(=O)[C@@H](NC(=O)Cn4cnnn4)[C@H]3SC2)s1 [CEFAZOLIN]
AC50 [1]: > 300 µM

CC=CC1=C(C(=O)O)N2C(=O)[C@@H](NC(=O)[C@H](N)c3ccc(O)cc3)[C@H]2SC1 [CEFPROZIL]
AC50 [1]: > 30 µM

CC(C)(O/N=C(\C(=O)N[C@@H]1C(=O)N2C(C(=O)[O-])=C(C[n+]3ccccc3)CS[C@H]12)c1csc(N)n1)C(=O)O [CEFTAZIDIME]
AC50 [1]: > 300 µM

CC(C)NC(=N)NC(=N)Nc1ccc(Cl)c(Cl)c1 [CHLORPROGUANIL]
AC50 [2]: 1.86 µM | AC50 [3]: 2.89 µM | AC50 [5]: > 30 µM | AC50 [6]: > 30 µM | AC50 (Mu-type opioid receptor): 11.2 µM | AC50 (Histamine H3 receptor): > 30 µM | AC50 [1]: 2.6 µM | AC50 (Prothrombin): > 30 µM | AC50 (D(1A) dopamine receptor): 1.77 µM | AC50 (Progesterone receptor): > 30 µM | AC50 [8]: > 30 µM | AC50 [7]: 5.59 µM | AC50 (D(3) dopamine receptor): > 30 µM | AC50 (Thromboxane A2 receptor): > 30 µM

CCCNC(=O)NS(=O)(=O)c1ccc(Cl)cc1 [CHLORPROPAMIDE]
AC50 [1]: > 30 µM

Clc1ccc(Cn2c(CN3CCCC3)nc3ccccc32)cc1 [CLEMIZOLE]
AC50 [1]: 0.86 µM

CCC(=O)O[C@]1(C(=O)CCl)[C@@H](C)C[C@H]2[C@@H]3CCC4=CC(=O)C=C[C@]4(C)[C@@]3(F)[C@@H](O)C[C@@]21C [CLOBETASOL PROPIONATE]
AC50 [1]: > 30 µM

O=C(O)Cc1ccccc1Nc1c(Cl)cccc1Cl [DICLOFENAC]
AC50 [2]: > 3 µM | AC50 [3]: > 3 µM | AC50 [4]: > 3 µM | AC50 [5]: > 3 µM | AC50 [6]: > 3 µM | AC50 (Mu-type opioid receptor): > 3 µM | AC50 (Histamine H3 receptor): > 3 µM | AC50 [1]: > 30 µM | AC50 (Prothrombin): > 3 µM | AC50 (D(1A) dopamine receptor): > 3 µM | AC50 (Progesterone receptor): > 3 µM | AC50 [7]: > 3 µM | AC50 (D(3) dopamine receptor): > 3 µM | AC50 (Thromboxane A2 receptor): > 3 µM

CN[C@@H]1[C@H](O[C@H]2[C@H](O[C@H]3[C@H](O)[C@@H](O)[C@H](NC(=N)N)[C@@H](O)[C@@H]3NC(=N)N)O[C@@H](C)[C@]2(O)CO)O[C@@H](CO)[C@H](O)[C@H]1O [DIHYDROSTREPTOMYCIN]
AC50 [2]: > 30 µM | AC50 [3]: > 30 µM | AC50 [5]: > 30 µM | AC50 [6]: > 30 µM | AC50 (Mu-type opioid receptor): > 30 µM | AC50 (Histamine H3 receptor): > 30 µM | AC50 (Prothrombin): > 30 µM | AC50 (D(1A) dopamine receptor): > 30 µM | AC50 (Progesterone receptor): > 30 µM | AC50 [8]: > 30 µM | AC50 [7]: > 30 µM | AC50 (D(3) dopamine receptor): > 30 µM | AC50 (Thromboxane A2 receptor): > 30 µM

CNC[C@H](O)c1ccc(O)c(O)c1 [EPINEPHRINE]
AC50 [1]: > 30 µM

Cc1onc(-c2c(F)cccc2Cl)c1C(=O)N[C@@H]1C(=O)N2[C@@H]1SC(C)(C)[C@@H]2C(=O)O [FLOXACILLIN]
AC50 [1]: > 30 µM

C#C[C@]1(O)C=C[C@H]2[C@@H]3CCC4=CC(=O)CC[C@@H]4[C@H]3CC[C@@]21CC [GESTODENE]
AC50 [2]: > 30 µM | AC50 [3]: > 30 µM | AC50 [5]: > 30 µM | AC50 [6]: > 30 µM | AC50 (Mu-type opioid receptor): 14.9 µM | AC50 (Histamine H3 receptor): > 30 µM | AC50 (Prothrombin): > 30 µM | AC50 (D(1A) dopamine receptor): > 30 µM | AC50 (Progesterone receptor): 0.003 µM | AC50 [8]: > 30 µM | AC50 [7]: > 30 µM | AC50 (D(3) dopamine receptor): > 30 µM | AC50 (Thromboxane A2 receptor): > 30 µM

CC[C@@H](CO)NC(=O)[C@@H]1C=C2c3cccc4c3c(cn4C)C[C@H]2N(C)C1 [METHYSERGIDE]
AC50 [1]: > 30 µM

CNC(=C[N+](=O)[O-])NCCSCc1csc(CN(C)C)n1 [NIZATIDINE]
AC50 [1]: > 30 µM

CN1Cc2c(N)cccc2C(c2ccccc2)C1 (centres undefined) [NOMIFENSINE]
AC50 [1]: 4.8 µM

CC(CN1c2ccccc2Sc2ccccc21)N(C)C (centres undefined) [PROMETHAZINE]
AC50 [2]: > 30 µM | AC50 [3]: 11.3 µM | AC50 [5]: > 30 µM | AC50 [6]: > 30 µM | AC50 (Histamine H3 receptor): > 30 µM | AC50 [1]: 0.922 µM | AC50 (Prothrombin): > 30 µM | AC50 (D(1A) dopamine receptor): 1.72 µM | AC50 (Progesterone receptor): > 30 µM | AC50 (D(3) dopamine receptor): 0.46 µM | AC50 (Thromboxane A2 receptor): > 30 µM

CCCc1cc(=O)[nH]c(=S)[nH]1 [PROPYLTHIOURACIL]
AC50 [1]: > 30 µM

Cn1cc(C(=O)[C@@H]2CCc3nc[nH]c3C2)c2ccccc21 [RAMOSETRON]
AC50 [1]: 4.7 µM

CN(CCOc1ccc(CC2SC(=O)NC2=O)cc1)c1ccccn1 (centres undefined) [ROSIGLITAZONE]
AC50 [1]: 13 µM

S=P(N1CC1)(N1CC1)N1CC1 [THIOTEPA]
AC50 [1]: 9.6 µM

CC(C)C[C@H](NC(=O)[C@@H](O)[C@H](N)Cc1ccccc1)C(=O)O [UBENIMEX]
AC50 [2]: > 30 µM | AC50 [3]: > 30 µM | AC50 [5]: > 30 µM | AC50 [6]: > 30 µM | AC50 (Mu-type opioid receptor): > 30 µM | AC50 (Histamine H3 receptor): > 30 µM | AC50 [1]: > 30 µM | AC50 (Prothrombin): > 30 µM | AC50 (D(1A) dopamine receptor): > 30 µM | AC50 (Progesterone receptor): > 30 µM | AC50 [8]: > 30 µM | AC50 [7]: > 30 µM | AC50 (D(3) dopamine receptor): > 30 µM | AC50 (Thromboxane A2 receptor): > 30 µM

CC(C)[C@H](N)C(=O)OCCOCn1cnc2c(=O)[nH]c(N)nc21 [VALACYCLOVIR]
AC50 [1]: > 30 µM

COc1cc(C(=O)NS(=O)(=O)c2ccccc2C)ccc1Cc1cn(C)c2ccc(NC(=O)OC3CCCC3)cc12 [ZAFIRLUKAST]
AC50 [1]: > 30 µM
